Among the data in ChEMBL document CHEMBL1149146, “Synthesis and biological evaluation of new 1,2-dihydro-4-hydroxy-2-oxo-3-quinolinecarboxamides for treatment of autoimmune disorders: structure-activity relationship” (2004) are inhibition in vivo and inhibition values, retold here.

Experiment [1] relates to Mus musculus. The experiment can be described thus: Inhibition of acute experimental autoimmune encephalomyelitis (aEAE) induced in SJL/N mice at a dose of 5 mg/kg/day, (sc) was determined. It counts as functional.
The subject of experiment [2] is Mus musculus. Nature of the experiment: Inhibition of acute experimental autoimmune encephalomyelitis in SJL/N mice by 5 mg/kg/day p.o./s.c. Conditions: route oral. It counts as functional.
For experiment [3], the system named is Mus musculus. Nature of the experiment: Inhibition of acute experimental autoimmune encephalomyelitis (aEAE) induced in SJL/N mice at a dose of 0.2 mg/kg/day, (po/sc) was determined; Inactive. The experiment is classed as functional.
The subject of experiment [4] is Mus musculus. The experiment can be described thus: Inhibition of acute experimental autoimmune encephalomyelitis in SJL/N mice by 1 mg/kg/day p.o./s.c. It counts as functional. Particulars: route oral.
The subject of experiment [5] is Mus musculus. Nature of the experiment: Inhibition of acute experimental autoimmune encephalomyelitis (aEAE) induced in SJL/N mice at a dose of 1 mg/kg/day, (po). The experiment is classed as functional.
Experiment [6] deals with Mus musculus. Nature of the experiment: Inhibition of acute experimental autoimmune encephalomyelitis in SJL/N mice by 5 mg/kg/day p.o. Particulars: route oral. It counts as functional.
Experiment [7] has as its system Mus musculus. Nature of the experiment: Inhibition of acute experimental autoimmune encephalomyelitis (aEAE) induced in SJL/N mice at a dose of 0.2 mg/kg/day, (po) was determined; Inactive <35% inhibition. It counts as functional, organism-based.
Experiment [8] relates to Mus musculus. Nature of the experiment: Inhibition of acute experimental autoimmune encephalomyelitis (aEAE) induced in SJL/N mice at a dose of 5 mg/kg/day, (po) was determined; Inactive. The experiment is classed as functional.
The subject of experiment [9] is Mus musculus. Nature of the experiment: Inhibition of acute experimental autoimmune encephalomyelitis (aEAE) induced in SJL/N mice at a dose of 1 mg/kg/day, (po) was determined; Inactive. The experiment is classed as functional.
Experiment [10] concerns Mus musculus. Nature of the experiment: Inhibition of acute experimental autoimmune encephalomyelitis (aEAE) in SJL/N mice at a dose of 5 mg/kg/day, (po/sc) was determined. It counts as functional.
In experiment [11] the test system is Mus musculus. Nature of the experiment: Inhibition of acute experimental autoimmune encephalomyelitis in SJL/N mice by 0.2 mg/kg/day p.o./s.c. The experiment is classed as functional. Particulars: po.
The test system of experiment [12] is Mus musculus. Nature of the experiment: Inhibition of acute experimental autoimmune encephalomyelitis (aEAE) in SJL/N mice at a dose of 1 mg/kg/day, (po/sc) was determined. The experiment is classed as functional.
The subject of experiment [13] is Mus musculus. The experiment can be described thus: Inhibition of acute experimental autoimmune encephalomyelitis (aEAE) induced in SJL/N mice at a dose of 0.2 mg/kg/day, (sc) was determined; Inactive. The experiment is classed as functional.
Experiment [14] deals with Mus musculus. Nature of the experiment: Inhibition of acute experimental autoimmune encephalomyelitis (aEAE) induced in SJL/N mice at a dose of 5 mg/kg/day was determined. The experiment is classed as functional.
Experiment [15] relates to Mus musculus. Nature of the experiment: Inhibition of acute experimental autoimmune encephalomyelitis (aEAE) induced in SJL/N mice at a dose of 1 mg/kg/day, (sc) was determined; Inactive. The experiment is classed as functional.
The test system of experiment [16] is Mus musculus. Nature of the experiment: Inhibition of acute experimental autoimmune encephalomyelitis (aEAE) induced in SJL/N mice at a dose of 1 mg/kg/day, (po/sc) was determined; Inactive. It counts as functional.
For experiment [17], the system named is Mus musculus. The experiment can be described thus: Inhibition of acute experimental autoimmune encephalomyelitis (aEAE) induced in SJL/N mice at a dose of 5 mg/kg/day, (po/sc) was determined; Inactive. The experiment is classed as functional.

Calls of active or inactive are those of the source. A value given as a limit tells only on which side of the number the result lay.

With `Cc1ccc2c(O)c(C(=O)N(C)c3ccccc3)c(=O)n(C)c2c1`, in [1], the inhibition in vivo at 5 mg/kg/day stood at 53%.

In experiment [1], `CN(C(=O)c1c(O)c2ccc(C(F)(F)F)cc2n(C)c1=O)c1ccc(F)cc1` returned an inhibition in vivo at 5 mg/kg/day of 35%.

As to `CCN(C(=O)c1c(O)c2cc(Cl)ccc2n(C)c1=O)c1ccccc1`, the inhibition in vivo at 5 mg/kg/day in [2] worked out at 83%. This compound also returned an inhibition in vivo at 0.2 mg/kg/day in experiment [3] below 35%. The inhibition in vivo at 1 mg/kg/day in [4] was 62%.

For `CCOc1ccc2c(c1)c(O)c(C(=O)N(C)c1ccc(F)cc1)c(=O)n2C`, the inhibition in vivo at 5 mg/kg/day in experiment [1] is 53%.

`CCN(C(=O)c1c(O)c2c(C)cccc2n(C)c1=O)c1ccccc1` showed an inhibition in vivo at 1 mg/kg/day in experiment [5] of 65%. For the same compound, the inhibition in vivo at 5 mg/kg/day in [6] was found to be 85%. Besides, the inhibition result in experiment [7] is “inactive”.

As for `CN(C(=O)c1c(O)c2c(Oc3ccc(F)cc3)cccc2n(C)c1=O)c1ccccc1`, the inhibition in vivo at 5 mg/kg/day in [8] was below 35%. Further, the inhibition in vivo at 1 mg/kg/day in experiment [9] is below 35%.

`CN(C)c1ccc2c(c1)c(O)c(C(=O)N(C)c1ccccc1)c(=O)n2C` showed an inhibition in vivo at 5 mg/kg/day in experiment [8] below 35%.

As to `CN(C(=O)c1c(O)c2ccccc2n(C)c1=O)c1ccccc1` [ROQUINIMEX], the inhibition in vivo at 5 mg/kg/day in experiment [10] amounted to 71%. This compound displayed an inhibition in vivo at 0.2 mg/kg/day in experiment [11] of 35%. Moreover, the inhibition in vivo at 1 mg/kg/day in experiment [12] amounted to 43%.

In turn, `CCc1ccc2c(c1)c(O)c(C(=O)N(CC)c1ccccc1)c(=O)n2C` had an inhibition in vivo at 5 mg/kg/day in experiment [8] below 35%. Further, the inhibition in vivo at 1 mg/kg/day in experiment [9] was below 35%.

As to `CN(C(=O)c1c(O)c2cccc(F)c2n(C)c1=O)c1ccc(F)cc1`, the inhibition in vivo at 0.2 mg/kg/day in [13] was below 35%. This compound also had an inhibition in vivo at 5 mg/kg/day in experiment [14] of 55%. Besides, the inhibition in vivo at 1 mg/kg/day in experiment [15] is below 35%.

For `COc1ccc(N(C)C(=O)c2c(O)c3ccccc3n(C3CC3)c2=O)cc1`, in [16], the inhibition in vivo at 1 mg/kg/day is below 35%. Moreover, the inhibition in vivo at 5 mg/kg/day in [17] was below 35%.
